Measurements as given in patent US20220380374A1, “1,4-DIHYDROBENZO[D]PYRAZOLO[3,4-F][1,3]DIAZEPINE DERIVATIVES AND RELATED COMPOUNDS AS LRRK2, NUAK1 AND/OR TYK2 KINASE MODULATORS FOR THE TREATMENT OF E.G. AUTOIMMUNE DISEASE” (Origenis GMBH, priority 2019, published 2022).
pIC50: −log10 of the molar value.

How the values were obtained:
[1] = target: T1, wt human TYK2, catalytic site (Homo sapiens, UniProt P29597); assay: HTRF KinEASE assay, TYK2; assay type: biochemical; details: 1 μM ATP; read-out: IC50, inhibitory activity toward TYK2
T1 construct: 2 nM wt human TYK2, catalytic site (SignalChem/CAN); purchased SignalChem/CAN
T1 sequence (P29597 897-1176 limits assumed): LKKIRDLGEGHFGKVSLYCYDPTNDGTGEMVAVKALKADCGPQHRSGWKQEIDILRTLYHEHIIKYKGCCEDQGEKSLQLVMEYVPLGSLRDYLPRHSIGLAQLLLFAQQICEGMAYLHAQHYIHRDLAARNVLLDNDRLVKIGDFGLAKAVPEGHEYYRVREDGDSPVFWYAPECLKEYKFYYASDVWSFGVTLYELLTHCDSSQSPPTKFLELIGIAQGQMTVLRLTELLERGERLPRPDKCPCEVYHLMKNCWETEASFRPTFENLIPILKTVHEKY
Description: Basic protocol for HTRF KinEASE assay (Cisbio/FRA) inhibitor studies involved two steps: Enzymatic step: Addition of 4 μl of test compound in corresponding DMSO dilutions, 4 μl of kinase/substrate mixture, 2 μl of ATP into 384 well small volume plates. Incubation for at least 30 minutes at room temperature.
Detection step: Addition of 5 μl antibody and 5 μl streptavidin-XL665, read plate after 60 minutes. Data analysis of emission ratios according to KinEASE assay protocol.
Kinase and assay components were adjusted to final concentrations according to the kit protocol. For TYK2: 2 nM wt human TYK2, catalytic site (SignalChem/CAN), 1 μM HTRF KinEASE-TK Substrate-biotin, 1 μM ATP in 1× Kinase Buffer

[2] = target: T2, wt human NUAK1, full length (Homo sapiens, UniProt O60285); assay: TR-FRET LanthaScreen Eu Kinase Binding Assay, NUAK1; details: 5 nM Kinase Tracer 236; read-out: IC50, inhibitory activity toward NUAK1
T2 construct: 8 nM wt human NUAK1, full length (ThermoFisher/USA); purchased ThermoFisher/USA
T2 sequence (O60285 1-661): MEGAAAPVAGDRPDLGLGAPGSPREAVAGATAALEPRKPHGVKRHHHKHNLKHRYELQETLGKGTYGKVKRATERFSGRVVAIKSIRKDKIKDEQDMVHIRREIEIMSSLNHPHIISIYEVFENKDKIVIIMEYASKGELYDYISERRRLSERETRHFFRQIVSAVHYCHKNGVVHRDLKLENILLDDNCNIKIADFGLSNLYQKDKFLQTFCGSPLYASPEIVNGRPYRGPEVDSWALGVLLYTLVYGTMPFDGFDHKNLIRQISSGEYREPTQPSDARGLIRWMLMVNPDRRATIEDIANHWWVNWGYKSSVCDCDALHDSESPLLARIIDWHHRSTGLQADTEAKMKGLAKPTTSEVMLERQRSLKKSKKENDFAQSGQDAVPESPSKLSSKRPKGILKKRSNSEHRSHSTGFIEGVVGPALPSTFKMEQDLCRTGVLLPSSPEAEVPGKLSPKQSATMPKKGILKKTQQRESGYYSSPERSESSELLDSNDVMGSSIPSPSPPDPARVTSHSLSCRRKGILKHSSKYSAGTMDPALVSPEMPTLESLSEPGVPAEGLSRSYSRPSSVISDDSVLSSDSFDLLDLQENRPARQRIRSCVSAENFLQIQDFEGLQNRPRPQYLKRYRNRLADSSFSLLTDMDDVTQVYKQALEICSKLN
Description: The basic protocol for TR-FRET LanthaScreen Eu Kinase Binding Assay inhibitor studies were performed as follows. LanthaScreen Kinase Binding Assays (ThermoFisher/USA) to evaluate inhibitors were performed by addition of 5 μl of test compound in corresponding DMSO dilutions/5 μl of kinase/antibody mixture, 5 μl of tracer into 384 well small volume plates. After incubation for 1 hour at room temperature, plates were read. Data analysis of emission ratios was according to LanthaScreen Eu Kinase Binding Assay protocol.
Kinase and assay components were adjusted to final concentrations according to the kit protocol. For LRRK2: 5 nM wt human LRRK2, catalytic site, or G2019S human LRRK2, catalytic site (ThermoFisher/USA), 2 nM Eu-Anti-GST Antibody, 10 nM Kinase Tracer 236 in 1× Kinase Buffer A. For NUAK1: 8 nM wt human NUAK1, full length (ThermoFisher/USA), 2 nM Eu-Anti-His Antibody, 5 nM Kinase Tracer 236 in 1× Kinase Buffer A.

Compound | pIC50 [1] | pIC50 [2]
Fc1cccc(F)c1C1=Nc2cn[nH]c2-c2ccccc2N1 [Compound 8, 5-(2,6-difluorophenyl)-1,6-dihydrobenzo[d]pyrazolo[3,4-f][1,3]diazepine] | 7.00 to 8.00 | 6.00 to 7.00
Fc1cccc(F)c1C1=Nc2ncccc2-c2[nH]ncc2N1 [Compound 11, 5-(2,6-difluorophenyl)-1,4-dihydropyrazolo[4,3-d]pyrido[3,2-f][1,3]diazepine] | 6.00 to 7.00 | 7.00 to 8.00
Fc1ccc(Cl)c(F)c1C1=Nc2ccccc2-c2[nH]ncc2N1 [Compound 18, 5-(3-chloro-2,6-difluorophenyl)-1,4-dihydrobenzo[d]pyrazolo[3,4-f][1,3]diazepine] | 6.00 to 7.00 | 6.00 to 7.00
Fc1cccc(F)c1C1=Nc2ccc(Cl)cc2-c2[nH]ncc2N1 [Compound 25, 9-chloro-5-(2,6-difluorophenyl)-1,4-dihydrobenzo[d]pyrazolo[3,4-f][1,3]diazepine] | 6.00 to 7.00 | 7.00 to 8.00
Fc1cccc(Cl)c1C1=Nc2ccccc2-c2[nH]ncc2N1 [Compound 27, 5-(2-chloro-6-fluorophenyl)-1,4-dihydrobenzo[d]pyrazolo[3,4-f][1,3]diazepine] | 7.00 to 8.00 | 7.00 to 8.00
Fc1cccc(Cl)c1C1=Nc2ncccc2-c2[nH]ncc2N1 [Compound 30, 5-(2-chloro-6-fluorophenyl)-1,4-dihydropyrazolo[4,3-d]pyrido[3,2-f][1,3]diazepine] | 7.00 to 8.00 | –
Fc1ccc(F)c(C2=Nc3ccccc3-c3[nH]ncc3N2)c1F [Compound 32, 5-(2,3,6-trifluorophenyl)-1,4-dihydrobenzo[d]pyrazolo[3,4-f][1,3]diazepine] | 6.00 to 7.00 | 6.00 to 7.00
Fc1ccc2c(c1)-c1[nH]ncc1N=C(c1c(F)cccc1F)N2 [Compound 33, 5-(2,6-difluorophenyl)-9-fluoro-1,6-dihydrobenzo[d]pyrazolo[3,4-f][1,3]diazepine] | 7.00 to 8.00 | 7.00 to 8.00
Fc1ccc2c(c1)-c1[nH]ncc1N=C(c1c(F)cccc1Cl)N2 [Compound 34, 5-(2-chloro-6-fluorophenyl)-9-fluoro-1,6-dihydrobenzo[d]pyrazolo[3,4-f][1,3]diazepine] | 7.00 to 8.00 | 7.00 to 8.00
Cc1ccc2c(c1)-c1[nH]ncc1N=C(c1c(F)cccc1Cl)N2 [Compound 35, 5-(2-chloro-6-fluorophenyl)-9-methyl-1,6-dihydrobenzo[d]pyrazolo[3,4-f][1,3]diazepine] | 6.00 to 7.00 | 7.00 to 8.00
Cc1ccc2c(c1)-c1[nH]ncc1N=C(c1c(F)cccc1F)N2 [Compound 36, 5-(2,6-difluorophenyl)-9-methyl-1,6-dihydrobenzo[d]pyrazolo[3,4-f][1,3]diazepine] | 6.00 to 7.00 | 7.00 to 8.00
Fc1cccc(Cl)c1C1=Nc2ccc(Cl)cc2-c2[nH]ncc2N1 [Compound 37, 9-chloro-5-(2-chloro-6-fluorophenyl)-1,4-dihydrobenzo[d]pyrazolo[3,4-f][1,3]diazepine] | 6.00 to 7.00 | 6.00 to 7.00
COc1ccc2c(c1)-c1[nH]ncc1N=C(c1c(F)cccc1F)N2 [Compound 38, 5-(2,6-difluorophenyl)-9-methoxy-1,6-dihydrobenzo[d]pyrazolo[3,4-f][1,3]diazepine] | 6.00 to 7.00 | 6.00 to 7.00
O=C(c1ccc2c(c1)N=C(c1c(F)cccc1F)Nc1cn[nH]c1-2)N1CCOCC1 [Compound 56, (5-(2,6-difluorophenyl)-1,4-dihydrobenzo[d]pyrazolo[3,4-f][1,3]diazepin-8-yl)(morpholino)methanone] | 6.00 to 7.00 | –
Fc1cccc(F)c1C1=Nc2cn[nH]c2-c2cn(C3CCOCC3)nc2N1 [Compound 60, 5-(2,6-difluorophenyl)-8-(tetrahydro-2H-pyran-4-yl)-6,8-dihydro-1H-dipyrazolo[3,4-d:3′,4′-f][1,3]diazepine] | 6.00 to 7.00 | –
CC[C@@H](C)Oc1cc2c(cc1F)-c1n[nH]cc1N=C(c1c(F)cccc1Cl)N2 [Compound 248, (R)-8-(sec-butoxy)-5-(2-chloro-6-fluorophenyl)-9-fluoro-2,6-dihydrobenzo[d]pyrazolo[3,4-f][1,3]diazepine] | 7.00 to 8.00 | –

The next lines start with the values.

pIC50 [1] | pIC50 [2] | Compound
7.00 to 8.00 | – | Fc1cccc(F)c1C1=Nc2cn[nH]c2-c2[nH]ncc2N1 [Compound 66, 5-(2,6-difluorophenyl)-4,9-dihydro-1H-dipyrazolo[4,3-d:3′,4′-f][1,3]diazepine]
6.00 to 7.00 | – | O=C(c1ccc2c(c1)N=C(c1c(Cl)cccc1Cl)Nc1cn[nH]c1-2)N1CCOCC1 [Compound 79, (5-(2,6-dichlorophenyl)-1,4-dihydrobenzo[d]pyrazolo[3,4-f][1,3]diazepin-8-yl)(morpholino)methanone]
> 8.00 | – | NC(=O)c1ccc2c(c1)N=C(c1c(F)cccc1F)Nc1cn[nH]c1-2 [Compound 81, 5-(2,6-difluorophenyl)-1,4-dihydrobenzo[d]pyrazolo[3,4-f][1,3]diazepine-8-carboxamide]
6.00 to 7.00 | – | O=[N+]([O-])c1cccc(F)c1C1=Nc2cn[nH]c2-c2ccccc2N1 [Compound 106, 5-(2-fluoro-6-nitrophenyl)-1,6-dihydrobenzo[d]pyrazolo[3,4-f][1,3]diazepine]
6.00 to 7.00 | – | O=[N+]([O-])c1ccc(F)c(C2=Nc3cn[nH]c3-c3ccccc3N2)c1F [Compound 107, 5-(2,6-difluoro-3-nitrophenyl)-1,6-dihydrobenzo[d]pyrazolo[3,4-f][1,3]diazepine]
6.00 to 7.00 | – | O=[N+]([O-])c1cccc(F)c1C1=Nc2cn[nH]c2-c2cccnc2N1 [Compound 108, 5-(2-fluoro-6-nitrophenyl)-1,6-dihydropyrazolo[4,3-d]pyrido[3,2-f][1,3]diazepine]
6.00 to 7.00 | – | Fc1cccc(I)c1C1=Nc2ccccc2-c2[nH]ncc2N1 [Compound 111, 5-(2-fluoro-6-iodophenyl)-1,4-dihydrobenzo[d]pyrazolo[3,4-f][1,3]diazepine]
6.00 to 7.00 | – | COc1cccc(F)c1C1=Nc2cn[nH]c2-c2cccnc2N1 [Compound 119]
6.00 to 7.00 | – | Fc1ccc2c(c1F)N=C(c1c(F)cccc1F)Nc1cn[nH]c1-2 [Compound 170, 5-(2,6-difluorophenyl)-7,8-difluoro-1,4-dihydrobenzo[d]pyrazolo[3,4-f][1,3]diazepine]
6.00 to 7.00 | – | O=C(NC1CCOCC1)c1cc2c(cc1Cl)-c1n[nH]cc1N=C(c1c(F)cccc1F)N2 [Compound 199, 9-chloro-5-(2,6-difluorophenyl)-N-(tetrahydro-2H-pyran-4-yl)-2,6-dihydrobenzo[d]pyrazolo[3,4-f][1,3]diazepine-8-carboxamide]
7.00 to 8.00 | – | Fc1cc2c(cc1OC1CCOCC1)N=C(c1c(Cl)cccc1C(F)(F)F)Nc1c[nH]nc1-2 [Compound 224, 5-(2-chloro-6-(trifluoromethyl)phenyl)-9-fluoro-8-((tetrahydro-2H-pyran-4-yl)oxy)-2,4-dihydrobenzo[d]pyrazolo[3,4-f][1,3]diazepine]
7.00 to 8.00 | – | CCC(CC)Oc1cc2c(cc1F)-c1n[nH]cc1N=C(c1c(F)cccc1Cl)N2 [Compound 232, 5-(2-chloro-6-fluorophenyl)-9-fluoro-8-(pentan-3-yloxy)-2,6-dihydrobenzo[d]pyrazolo[3,4-f][1,3]diazepine]
6.00 to 7.00 | – | Fc1cc2c(cc1Oc1ccccc1)N=C(c1c(F)cccc1Cl)Nc1c[nH]nc1-2 [Compound 244, 5-(2-chloro-6-fluorophenyl)-9-fluoro-8-phenoxy-2,4-dihydrobenzo[d]pyrazolo[3,4-f][1,3]diazepine]
